Where two headings read alike, the source gives them in different places.
Target: SARS-CoV-2 3CL^pro (Severe acute respiratory syndrome coronavirus 2 (2019-nCoV) (SARS-CoV-2), UniProt P0DTD1)
Test: biochemical
Settings: FRET
[1] = class symbols, read-out: IC50 (nM), inhibitory activity against 3CL^pro
[2] = non-linear regression, read-out: IC50 against 3CL^pro

Structure (SMILES)	IC50 [1] [nM]	IC50 [2] [nM]
Cn1cc2cc(Nc3nc(=O)n(Cc4nnn[nH]4)c(=O)n3Cc3ccc(-c4ccccc4)cc3)c(Cl)cc2n1 [Compound 7, (E)-3-((1H-tetrazol-5-yl)methyl)-1-([1,1-biphenyl]-4-ylmethyl)-6-((6-chloro-2-methyl-2H-indazol-5-yl)imino)-1,3,5-triazin-2,4-dione]	> 1000	
Cn1cc2cc(/N=c3\[nH]c(=O)n(Cc4nnn[nH]4)c(=O)n3Cc3ccc(Br)cc3)c(Cl)cc2n1 [Compound 6]	200 to 500	
Cn1cc2cc(/N=c3\[nH]c(=O)n(Cc4nnn[nH]4)c(=O)n3Cc3ccc(Cl)cc3)c(Cl)cc2n1 [Compound 5]	200 to 500	
Cn1cc2cc(/N=c3\[nH]c(=O)n(Cc4nnn[nH]4)c(=O)n3Cc3ccc(C(C)(C)C)cc3)c(Cl)cc2n1 [Compound 4]	500 to 1000	
COc1cc(Cn2c(=O)n(Cc3nnn[nH]3)c(=O)[nH]/c2=N\c2cc3cn(C)nc3cc2Cl)cc(OC)c1 [Compound 14]	500 to 1000	
CC(C)n1nnnc1Cn1c(=O)[nH]/c(=N\c2cc3cn(C)nc3cc2Cl)n(Cc2cc(F)c(F)cc2F)c1=O [Compound 22]	200 to 500	
Cn1cc2cc(/N=c3\[nH]c(=O)n(Cc4nnn[nH]4)c(=O)n3Cc3cc(F)cc(F)c3)c(Cl)cc2n1 [Compound 15]	< 200	< 200
CCn1nnnc1Cn1c(=O)[nH]/c(=N\c2cc3cn(C)nc3cc2Cl)n(Cc2ccc(Cl)cc2)c1=O [Compound 20]	200 to 500	
Cn1cc2cc(/N=c3\[nH]c(=O)n(Cc4nnnn4C)c(=O)n3Cc3cc(F)c(F)cc3F)c(Cl)cc2n1 [Compound 16]	< 200	< 200
Cc1ccc(Cn2c(Nc3cc4cn(C)nc4cc3Cl)nc(=O)n(Cc3nnn[nH]3)c2=O)cc1 [Compound 3, (E)-3-(1H-tetrazol-5-yl)methyl)-6-(6-chloro-2-methyl-2H-indazol-5-yl)imino)-1-(4-methylbenzyl)-1,3,5-triazin-2,4-dione]	500 to 1000	
Cn1cc2cc(/N=c3\[nH]c(=O)n(Cc4nnn[nH]4)c(=O)n3Cc3ccc(OC(F)(F)F)cc3)c(Cl)cc2n1 [Compound 11]	500 to 1000	
Cc1cc(C)cc(Cn2c(=O)n(Cc3nnn[nH]3)c(=O)[nH]/c2=N\c2cc3cn(C)nc3cc2Cl)c1 [Compound 13]	500 to 1000	

Reference: patent US20230391736A1, “3-TETRAZOLYLMETHYL-1,3,5-TRIAZIN-2,4-DIONE COMPOUND INHIBITING CORONAVIRUS 3CL PROTEASE ACTIVITY AND PREPARATION METHOD AND USE THEREOF” (priority 2022, published 2023)
